# Measured values as given in patent US20200230205A1, “COMPOSITIONS AND METHODS FOR TREATING MYELIN DISORDERS” (CASE WESTERN RESERVE UNIVERSITY, priority 2017, published 2020).
# How the values were obtained:
# Type in all cases: cell-based, mouse
# [1] = tested on: OPC secreted proteases; assay: Protease array screen of OPC conditioned media; conditions: OPC CM, 2.5 μM ISP for 4 div vs vehicle
# Method: OPCs were cultured on 6-well plates for 4 div with vehicle control or 2.5 μM ISP treatment. Conditioned media was collected from each group and cell-strained before incubation with blot array provided in R & D Systems Protease Array Kit (ARY025). Instructions from kit were followed with overnight incubation of collected media at 4° C. Control and ISP blots were developed together with the same exposure time and pixel intensities of array was assess using ImageJ (NIH).
# [2] = tested on: laminin; assay: Laminin degradation by OPC conditioned media (spot staining and western blot)
# Method: CSPG gradients were prepared as described previously (Tom, V. J., et al. Studies on the Development and Behavior of the Dystrophic Growth Cone, the Hallmark of Regeneration Failure, in an In vitro Model of the Glial Scar and after Spinal Cord Injury.). 24-well glass coverslip were coated with poly-L-lysine and nitrocellulose, and a mixture of 700 μg/mL aggrecan (A1960 Sigma) and 10 μg/mL laminin (11243217001 Sigma) spotted on the coated coverslip. After drying, coated coverslips were then incubated with laminin at 37° C. for 3h. Purified OPCs were plated at a density of 10,000/coverslip and cultured in DMEM/F12 medium containing with N2, PDGF (20 ng/ml), FGF (20 ng/ml), NT-3 (5 ng/ml), CNTF (O1 ng/ml), Glutamine (200 mM). Coverslips were stained with CS-56 (C8035, Sigma, 1:500) and O4 antibodies (Hybridoma Core Cleveland Clinic, 1:10). O4-positive cells crossing the aggrecan border were counted for each spot. For CSPG gradient quantification, 1×10^6 OPCs were plated per well on PLL, 1 μg/mL laminin, and 2 μg/mL aggrecan coated 6-well plates. OPCs treated with vehicle, 2.5 μM ISP, or 2.5 μM SISP for 2 days at 37° C. CM was harvested and incubated with freshly made spots. […] Using ImageJ software (NIH), pixel intensities of the CS-56 or laminin spot rims were quantified using the same ROI. […]
# [3] = tested on: OPC conditioned media protease activity; assay: Conditioned media protease activity assay (EnzChek, quenched casein); conditions: OPCs treated with 2.5 μM ISP, vs vehicle and SISP
# Method: Around 1×10^6 OPCs were plated per well on PLL, 1 μg/mL laminin, and 2 μg/mL aggrecan coated 6-well plates and treated with vehicle, 2.5 μM ISP or SISP for 2 days at 37° C. CM was collected, cell-strained, and placed on ice until assayed. ThermoFisher Protease Assay Kit (E66383, EnzChek, ThermoFisher) was used to assay protease activity. 1× of the EnzChek mixture was mixed 1:1 with the CM from each group and incubated at RT O/N with gentle shaking. 3 replicates were performed for each sample. Samples were analyzed using a spectrophotometer at 502/528 nm excitation and emission to assess cleaved and fluorescing casein. Fluorescence units reported have been blanked with EnzChek and cell culture media mixture.
sequence,measurement,setting,value
GRKKRRQRRRCDMAEHMERLKANDSLKLSQEYESI [ISP],"protease array signal for ADAMTS, Kallikreins, Cathepsins, MMPs",[1],increased signal
same,protease array signal for Cathepsins L and V and MMP-10 (laminin degrading),[1],reduced
same,"laminin portion of the spot, immunostaining",[2]; CM of OPCs treated with 2.5 μM ISP,completely spared
same,laminin immunoblot,"[2]; OPC CM, 2.5 μM ISP, laminin 10 μg/mL",no significant changes
same,protease activity (fluorescence A.U.),[3],increased protease activity
